In data set [1] the test system is human gastric cancer cell line NCI-N87. Put plainly: Experimental example 1: NCI-N87 gastric cancer subcutaneous xenograft, tumor inhibition. In kind it is in vivo, Balb/c-nu mice. The conditions noted are these: D21 after administration; IV, BIW×3W; BT001021 and Immu-132 3 mg/kg, toxins T-030 and SN-38 equimolar to ADC. As to the method:
Tumor-bearing mice (6 mice/group) with tumor volume of 100-200 mm^3 were randomly grouped (the number of groups was determined according to sample number). The administration volume was 10 ml/kg, and the administration route was tail intravenous injection. The mice were administered twice a week, and tumor diameter was measured with a vernier caliper, and tumor volume was calculated based on the following calculation formula: V=0.5 a×b^2, wherein a and b stand for the long diameter and short diameter of a tumor respectively. Animal deaths were observed and recorded every day.
The tumor growth inhibition rate TGI (%) was calculated from the following formula to evaluate tumor inhibitory effect of antibody drug conjugates:
Specifically, in the experimental examples 1 and 2, tumor-bearing mice models were constructed by subcutaneous xenograft of a human gastric cancer cell line NCI-N87 or a human triple negative breast cancer cell line HCC1806. After the tumor volume was about 100 mm^3, the mice were randomly grouped, and intravenously administered with BT001021 twice a week for a total of 6 times. Changes in tumor volume and animal body weight were measured twice a week to evaluate the efficacy (tumor inhibitory effect) of the antibody drug conjugate on tumor-bearing mice.
NCI-N87 cells were cultured in a 1640 culture medium containing 10% fetal bovine serum at 37° C. and 5% CO2. NCI-N87 cells in the exponential growth stage were collected, resuspended in PBS to a suitable concentration, and inoculated subcutaneously into female Balb/c-nu mice to construct gastric cancer models. When the mean tumor volume was about 90 mm^3, the mice were randomly grouped into a physiological saline group, a BT001021 (3 mg/kg, IV, BIW×3W) group, a positive drug Immu-132 (3 mg/kg, IV, BIW×3W) group, a T030 group and a SN38 group according to the tumor size, followed by tail intravenous injection of corresponding drugs twice a week for a total of 6 times. After administration, the tumor volume and body weight of the mice were observed and measured regularly.

Data set [2] deals with MDA-MB-468 (Trop-2 positive cell lines). Kind of data set: In-vitro cell activity test (CCK8), MDA-MB-468. In kind it is cell-based. The conditions noted are these: Homo sapiens, 96 h; MDA-MB-468, 7500 cells/well, 4 days; read-out: EC50 (nM), killing effects of bioactive molecules on cells. As to the method: (§1) First, tumor cells MDA-MB-468 (Trop-2 positive cell lines) and HCC1806 (Trop-2 positive cell lines) were cultured. The bioactive molecules and ADC molecules disclosed in the disclosure were co-cultured with the tumor cells, then a CCK8 reagent (Dojindo Molecular Technologies, Inc., Cat: CK04, Lot:JJ744) was added. The activity of dehydrogenase in mitochondria was tested through readings (detection wave length was 450 nm) from a microplate reader (manufacturer: Molecular Devices, model: SpectraMax M2) so as to evaluate the inhibitory effect of ADC on cell proliferation.
(§2) In-vitro cell activity testing: bioactive molecules or ADCs were diluted (12 concentration gradients) with corresponding test media (containing 2% FBS). The tumor cells were trypsinized with trypsin by a conventional method, collected and counted, and then resuspended with corresponding test media (containing 2% FBS). Diluted bioactive molecules or ADCs were added to a 96-well plate, and then cells were added. 20 μL of the CCK8 reagent was added to each well and reacted for 4 h, and readings (detection wavelength was 450 nm) were taken from a microplate reader.

Data set [3] relates to HCC1806 (Trop-2 positive cell lines). Put plainly: In-vitro cell activity test (CCK8), HCC1806. In kind it is cell-based. The conditions noted are these: Homo sapiens, read-out: EC50 (nM), killing effects of bioactive molecules on cells. As to the method: as §1, §2
A short description of data set [4]: Experimental example 6: pharmacokinetics of BT001021 and T-030 in NCI-N87 tumor-bearing mice (T-030 in tumor and serum, LC-MS/MS). In kind it is in vivo, Balb/c-nu mice. Conditions: T-030 0.23 mg/kg, single dose; for Cmax / AUC(0-t) / MRT inf / half-life: iv, 0.23 mg/kg; for AUC(0-t): read-out: AUClast (h*ng/ml) of T-030; for MRT inf: read-out: MRTINF (h) of T-030; for half-life: read-out: T1/2 (h) of T-030 (converted). From the text: Experimental example 6 was used to evaluate pharmacokinetics of antibody drug conjugates and bioactive molecules in vivo. Specifically, in the experiment, a tumor-bearing mice model was constructed by subcutaneous xenograft of a human gastric cancer cell line NCI-N87 to Balb/c-nu mice. After the tumor volume was 100-200 mm^3, the mice were randomly grouped, and intravenously administrated with a single dose of BT001021 and T-030. The concentration of the T-030 in tumor tissues and serum was determined to evaluate the pharmacokinetics in vivo of the antibody conjugate BT001021 and the bioactive molecule T-030 in the tumor-bearing mice.
Tumor-bearing mice (4 mice/group) with tumor volume of 100-200 mm^3 were randomly grouped (the number of groups was determined according to sample number), and the administration route was single tail intravenous injection.
NCI-N87 cells were cultured in a 1640 culture medium containing 10% heat-inactivated fetal bovine serum at 37° C. and 5% CO2. NCI—N87 cells in the exponential growth stage were collected, resuspended in PBS to a suitable concentration, and inoculated subcutaneously into Balb/c-nu mice to construct xenograft models of […]. When the mean tumor volume was about 100-200 mm^3, the mice were randomly grouped into a physiological saline group, a T-030 (0.23 mg/kg, IV, single dose) group and a BT001021 (10 mg/kg, IV, single dose) group according to the tumor size, followed by tail intravenous injection of corresponding drugs. For the T-030 group, serum and tumor tissues were collected 1 h, 2 h, 4 h, 8 h, 24 h and 72 h after administration (T-030 was not detected in the serum and tumor tissues 72 h after administration, therefore, serum and tumor tissues were not collected 168 h after administration). For BT001021 group, serum and tumor tissues were collected 1 h, 2 h, 4 h, 8 h, 24 h, 72 h and 168 h after administration to test the concentration of the T-030 in the serum and the tumors by LC-MS/MS. The administration dose of the T-030 (0.23 mg/kg) was converted to isomolar dose (10 mg/kg) of BT001021.

Setting [5] is: Balb/c-nu, mouse, in vivo, Serum.
Setting [6] is: Balb/c-nu, mouse, in vivo, Tumor.

Where two headings read alike, the source gives them in different places. Non-standard residues stand in square brackets, D forms with d. Residues, ends and D or L forms follow the SMILES beside them. ξ: configuration not given here. *: point of attachment. Dolaproine = CO[C@@H]([C@@H]1CCCN1)[C@@H](C)C(=O)O; Dil = CC[C@H](C)[C@H](NC)[C@@H](CC(=O)O)OC; NH(4-aminobenzyl) = Nc1ccc(CN*)cc1; NMe2Val = CC(C)[C@@H](C(=O)*)N(C)C; β3hF = N[C@H](CC(=O)O)Cc1ccccc1; ξF = NC(Cc1ccccc1)C(=O)O

`CCc1c2c(nc3ccc(O)cc13)-c1cc3c(c(=O)n1C2)COC(=O)[C@]3(O)CC` [SN-38]: in data set [1], the “Tumor Volume (mm^3) (x ± S)” value was determined as 416.11 ± 195.15 mm^3 and the “Tumor growth inhibition rate (%)” value is given as −2.75%.

By EC50 is commonly meant the concentration giving half of the maximal effect. Take `CC[C@H](C)[C@@H]([C@@H](CC(=O)N1CCC[C@H]1[C@H](OC)[C@@H](C)C(=O)NC(Cc1ccccc1)C(=O)NCc1ccc(N)cc1)OC)N(C)C(=O)[C@@H](NC(=O)[C@H](C(C)C)N(C)C)C(C)C` (stereo partly drawn) [T001, (2S)—N-((3R,4S,5S)-1-((2S)-2-((1R,2R)-3-((1-((4-aminobenzyl)amino)-1-oxo-3-phenylpropan-2-yl)amino)-1-methoxy-2-methyl-3-propionyl)pyrrolidin-1-yl)-3-methoxy-5-methyl-1-heptanoyl-4-yl)-2-((S)-2-(dimethylamino)-3-methylbutyrylamino)-N,3-dimethylbutyramide] (NMe2Val-V[Dil][Dolaproine][ξF]-{NH(4-aminobenzyl)}): the EC50 in data set [2] worked out at 1.13 nM.

Consider `CC[C@H](C)[C@@H]([C@@H](CC(=O)N1CCC[C@H]1[C@H](OC)[C@@H](C)C(=O)N[C@@H](Cc1ccccc1)C(=O)NCc1ccc(N)cc1)OC)N(C)C(=O)[C@@H](NC(=O)[C@H](C(C)C)N(C)C)C(C)C` [T011] (NMe2Val-V[Dil][Dolaproine]F-{NH(4-aminobenzyl)}), for which, in data set [2], the 50% effective concentration (EC50) was determined as 0.211 nM.

`CC[C@H](C)[C@@H]([C@@H](CC(=O)N1CCC[C@H]1[C@H](OC)[C@@H](C)C(=O)N[C@H](Cc1ccccc1)C(=O)NCc1ccc(N)cc1)OC)N(C)C(=O)[C@@H](NC(=O)[C@H](C(C)C)N(C)C)C(C)C` [T012] (NMe2Val-V[Dil][Dolaproine][dF]-{NH(4-aminobenzyl)}): in data set [2], the EC50 was determined as 1.62 nM.

For the compound `CC[C@H](C)[C@@H]([C@@H](CC(=O)N1CCC[C@H]1[C@H](OC)[C@@H](C)C(=O)N[C@H](CC(=O)NCc1ccc(N)cc1)Cc1ccccc1)OC)N(C)C(=O)[C@@H](NC(=O)[C@H](C(C)C)N(C)C)C(C)C` [T013] (NMe2Val-V[Dil][Dolaproine][β3hF]-{NH(4-aminobenzyl)}), the EC50 in data set [2] was found to be 0.414 nM.

On to `CC[C@H](C)[C@@H]([C@@H](CC(=O)N1CCC[C@H]1[C@H](OC)[C@@H](C)C(=O)NCC(=O)NCc1ccc(N)cc1)OC)N(C)C(=O)[C@@H](NC(=O)[C@H](C(C)C)N(C)C)C(C)C` [T015] (NMe2Val-V[Dil][Dolaproine]G-{NH(4-aminobenzyl)}), for which the EC50 in data set [2] came out at 7.43 nM.

Regarding `CC[C@@]1(O)C(=O)OCc2c1cc1n(c2=O)Cc2c-1nc1ccccc1c2CCN(C(C)=O)C(C)C` [T-028, (S)—N-(2-(4-ethyl-4-hydroxyl-3,14-dione-3,4,12,14-tetrahydro-1H-pyrano [3′,4′,6,7]indolizino[1,2-b]quinolin-11-yl)ethyl)-N-isopropylacetamide], in data set [3] (HCC1806, 72 h), the concentration for a half-maximal effect (EC50) stood at 6.02 nM.

The Cmax is the highest concentration seen after dosing. The Tmax is the time at which the peak concentration occurs. For the compound `CC[C@@]1(O)C(=O)OCc2c1cc1n(c2=O)Cc2c-1nc1ccccc1c2CCN(C(C)C)S(C)(=O)=O` [T-030, (S)—N-(2-(4-ethyl-4-hydroxyl-3,14-dione-3,4,12,14-tetrahydro-1H-pyrano[3′,4′,6,7]indolizino[1,2-b]quinolin-11-yl)ethyl)-N-isopropylmethanesulfonamide], in data set [3] (72 h, HCC1806, 7500 cells/well, 3 days), the concentration giving a half-maximal response (EC50) was determined as 6.73 nM. In data set [1], the “Tumor Volume (mm^3) (x ± S)” value amounted to 339.02 ± 152.80 mm^3 and the “Tumor growth inhibition rate (%)” value came out at 21.48%. Moreover, the “T-030 in the serum and tumor tissues” value in data set [4] (72 h after administration, IV) is recorded as “not detected”. Moreover, in data set [4] (setting [5]), the highest level (Cmax) was 1.81 ng/mL, the AUC(0-t) stood at 5.58 ng·h/mL, the MRT inf turned out to be 1.11 h and the half-life is 1.76 h. In data set [4] (setting [6]), the peak level (Cmax) was 1.2 ng/mL, the AUC(0-t) came out at 3.85 ng·h/mL, the MRT inf was 1.52 h and the half-life is 2.55 h. In data set [4] (Balb/c-nu, mouse, in vivo, Tumor, IV), the Tmax is 1 h.

The record behind these values is patent publication US20240382612A1, “BIOACTIVE CONJUGATE, PREPARATION METHOD THEREFOR AND USE THEREOF” (priority 2017, published 2024).
